Results from publication PMC6287539 (International Journal for Parasitology: Drugs and Drug …, 2018).

Legend:
[1] = molecular target: T1, Hco-ACC-1 (in the Hco-ACC-1/2 heteromeric channel) (Haemonchus contortus, UniProt A0A219KVV5+A0A219KWM7); test: two-electrode voltage clamp in Xenopus oocytes, dose-response; type: cell-based
T1 sequence (A0A219KVV5 23-459): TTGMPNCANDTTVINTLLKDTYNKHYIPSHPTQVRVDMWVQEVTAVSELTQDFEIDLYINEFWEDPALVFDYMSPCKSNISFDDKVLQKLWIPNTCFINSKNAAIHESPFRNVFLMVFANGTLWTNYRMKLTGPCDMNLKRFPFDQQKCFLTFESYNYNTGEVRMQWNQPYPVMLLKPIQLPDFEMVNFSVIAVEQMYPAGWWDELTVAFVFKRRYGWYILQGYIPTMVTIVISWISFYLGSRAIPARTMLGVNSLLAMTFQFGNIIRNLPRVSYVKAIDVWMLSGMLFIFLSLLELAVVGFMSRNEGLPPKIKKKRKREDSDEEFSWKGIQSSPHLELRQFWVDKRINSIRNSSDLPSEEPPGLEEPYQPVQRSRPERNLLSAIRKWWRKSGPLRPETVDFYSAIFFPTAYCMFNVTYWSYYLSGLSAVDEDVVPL
T1 sequence (A0A219KWM7 18-443): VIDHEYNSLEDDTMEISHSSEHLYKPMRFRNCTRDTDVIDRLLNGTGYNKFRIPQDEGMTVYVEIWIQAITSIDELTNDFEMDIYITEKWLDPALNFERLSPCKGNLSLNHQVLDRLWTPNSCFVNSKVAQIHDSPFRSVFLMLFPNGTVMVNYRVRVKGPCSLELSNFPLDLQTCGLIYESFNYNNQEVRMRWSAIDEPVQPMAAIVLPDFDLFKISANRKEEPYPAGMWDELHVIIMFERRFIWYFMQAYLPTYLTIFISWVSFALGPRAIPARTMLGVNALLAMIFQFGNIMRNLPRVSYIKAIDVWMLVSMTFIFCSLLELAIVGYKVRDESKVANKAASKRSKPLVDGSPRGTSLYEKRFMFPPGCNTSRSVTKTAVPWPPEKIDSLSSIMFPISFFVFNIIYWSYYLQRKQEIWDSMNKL

[2] = molecular target: T2, Hco-ACC-2 (homomeric channel) (Haemonchus contortus, UniProt A0A219KWM7); test: as above; type: cell-based
T2 sequence (A0A219KWM7 18-443): T1 sequence (A0A219KWM7 18-443)

Structure (SMILES): C[N+](C)(C)CCOC(N)=O [carbachol]
- EC50 [1]: 32.5 ± 3 µM
- EC50 [2]: 46 ± 2 µM
